Among the data in PubChem BioAssay AID1645864 (Buhrlage Lab, Dana-Farber Cancer Institute and Novartis …, 2021) are IC50 values, retold here.

pIC50: −log10 of the molar value. Calls of active or inactive are those of the source.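 Rule for the calls: active = maximal inhibition of USP17 at or above 30% in the confirmation dose-response, a value not among the printed readouts; inactive = the rest.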

The target in this assay is Ubiquitin carboxyl-terminal hydrolase 17-like protein 5 (Homo sapiens) (UniProt A8MUK1). In words: ubiquitin-specific protease 17 DUB inhibitors, concentration-effect assay, cell-free, verification of initial screening actives (AID 1645864). The note with it: purified USP17, ubiquitin-rhodamine cleavage fluorescence, 3 h.
Sequence of Ubiquitin carboxyl-terminal hydrolase 17-like protein 5 (Homo sapiens) (A8MUK1 whole entry, looked up): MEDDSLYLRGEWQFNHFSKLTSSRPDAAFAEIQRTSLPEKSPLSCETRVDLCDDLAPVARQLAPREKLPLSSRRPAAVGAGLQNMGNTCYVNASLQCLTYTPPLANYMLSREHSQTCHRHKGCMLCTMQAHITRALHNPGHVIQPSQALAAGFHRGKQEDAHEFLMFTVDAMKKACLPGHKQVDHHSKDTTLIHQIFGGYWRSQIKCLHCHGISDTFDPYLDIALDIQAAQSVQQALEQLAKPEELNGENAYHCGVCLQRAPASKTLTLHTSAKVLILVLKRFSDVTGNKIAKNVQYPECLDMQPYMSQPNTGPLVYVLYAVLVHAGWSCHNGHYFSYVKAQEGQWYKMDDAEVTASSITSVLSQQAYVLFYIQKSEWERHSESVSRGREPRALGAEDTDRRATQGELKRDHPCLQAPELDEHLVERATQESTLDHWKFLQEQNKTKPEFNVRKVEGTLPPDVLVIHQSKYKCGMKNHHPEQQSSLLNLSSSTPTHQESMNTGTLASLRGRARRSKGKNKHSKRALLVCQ
For the molecule `COc1cccc(CCNC(=O)CCn2c(=O)c(C)nc3cc(C)c(C)cc32)c1`, the IC50 was > 50 µM (inactive).
On the same count and under the same terms, the value for `COCCNC(=O)c1ccnn1-c1ccc2ccc(-c3cccnc3)cn12` was > 50 µM (inactive).
For `COc1ccc(NC(=O)c2cc(-c3cccnc3)n[nH]2)cc1Cl`, the pIC50 is 4.96.
With `Cc1ccc(-n2nc(C(=O)Nc3ccc(C)cn3)c3ncn(C)c(=O)c32)cc1`, the pIC50 is 5.58.
As to `CCCOc1ccc(C(=O)Nc2ccc(S(=O)(=O)Nc3cc(C)nc(C)n3)cc2)cc1`, the IC50 is > 50 µM (inactive).
`CC(C)=CCCC1(C)OC2=C(C(=O)c3cc(O)cc(O)c3C2=O)[C@H]2C=C(C)CC[C@H]21` (stereo not given in full): the pIC50 is 5.01.
The same measure, in the same setting: the value for `COc1ccc(C2/C(=C(\O)c3ccccc3)C(=O)C(=O)N2c2nc3ccc(F)cc3s2)cc1` (stereo not given) was 4.75; that for `CC(=O)Nc1ccc(-n2cnc(C(=O)NC(C)c3ccccc3)c2)nc1` (stereo not given) was 4.53.
For the molecule `COc1ccc(C)cc1NC(=O)C(NS(=O)(=O)c1ccc2c(c1)CCN2C(C)=O)C(C)C` (stereo not given), the IC50 is > 50 µM (inactive).
`O=C(NCc1ccc2c(c1)OCO2)c1cc2c(s1)-c1ccccc1OC2`: the pIC50 was 5.40.
Same read-out and setting: the value for `CCCCCCCc1cc(O)cc(OC(=O)c2c(CCCCCCC)cc(O)cc2O[C@H]2O[C@H](C(O)CO)[C@@H](O)[C@@H]2O)c1` (stereo not given in full) was 4.47; that for `Cc1cc(C)nc(-n2nc(C)c3c2NC(=O)CSC3c2ccc(F)cc2F)n1` (stereo not given) was 4.43.
Take `CC(=O)N1CCOc2cc(S(=O)(=O)N3CCCC3c3cc(C)no3)ccc21` (stereo not given): the IC50 was > 50 µM (inactive).
In the case of `CC(=O)Nc1ccc(S(=O)(=O)Nc2ccc(Nc3ccc(-n4cccn4)nn3)cc2)cc1`, the pIC50 is 4.62.
Still for that read-out and setting: the value for `Nc1c(C(=O)NCCc2ccccc2)nnn1-c1ccc(F)cc1` was 4.40.
As to `CCC(=O)OCc1cnc(C)c2oc(=O)c(-c3nc(-c4ccccc4)no3)cc12`, the IC50 was > 50 µM (inactive).
For `COc1ccc(Cl)cc1NC(=O)Cn1c(=O)cc(C)c2c(C)nn(-c3ccccc3)c21`, the pIC50 was 5.24.
As to `CCCCCCCCCC(CCCCCCCCCC(=O)O)O[C@H]1O[C@@H](COC(C)=O)[C@H](O)[C@@H](O)[C@H]1OC(=O)CC(=O)O` (stereo not given in full), the pIC50 is 4.64.
On the same count and under the same terms, the value for `CC(=O)c1ccc(NC(=O)C[n+]2cc(-c3ccc(Cl)cc3)n3c2CCC3)cc1` was 4.49; that for `CCOc1ccc(NC(=O)Cn2cnc(S(=O)(=O)N3CCc4ccccc43)c2)cc1` was 4.63; that for `Cc1nc(N2CCCC2)ncc1C(=O)Nc1ccc(F)c(F)c1` was 4.49.
The same measure, in the same setting: the value for `Cc1ccc(-c2nc(NC(=O)Nc3ccc(Cl)cc3)sc2C)cc1` was 4.71; that for `COc1cc(Cl)c(C)cc1NC(=O)Cn1c(=O)n(CC(=O)NCc2ccco2)c(=O)c2ccccc21` was 5.62; that for `COc1ccc2cc3c(nc2c1)OC(=O)N(CCc1cccc(F)c1)C3` was 7.14.
With `CSc1nc2ncc3c(=O)n(CCc4ccccc4)ccc3n2n1`, the IC50 was > 50 µM (inactive).
Still for that read-out and setting: the value for `FC(F)(F)c1ccccc1CCN1CCc2nc3ncc(Cl)cc3cc2C1` was > 50 µM (inactive).
Turning to `O=C(CSc1ccc2nnc(-c3ccccc3)n2n1)N1CCCc2ccccc21`, the pIC50 was 4.88.
Same read-out and setting: the value for `Cc1ccc(NCc2cc3c(C(C)(C)C)nn(-c4ccc(Cl)cc4)c3[nH]c2=O)cc1` was 4.80.
Regarding `CC(=O)c1cccc(NC(=O)c2ccc(-c3csc(C)n3)cc2)c1`, the IC50 is > 50 µM (inactive).
With `CCOc1ccc2nc(NC(=O)C3CCN(S(=O)(=O)c4ccc5c(c4)CC(C)N5C(C)=O)CC3)sc2c1` (stereo not given), the IC50 is > 50 µM (inactive).
With `O=C(Cc1noc2ccccc12)N1CCN(c2ccc([N+](=O)[O-])cc2)CC1`, the IC50 is > 50 µM (inactive).
Consider `COc1ccc(CN=C2NS(=O)(=O)C(c3ccc(F)cc3)=C2C)cc1OC`, for which the pIC50 is 4.73.
Same read-out and setting: the value for `CSc1ncccc1C(=O)NC1(O)C(=O)c2ccccc2C1=O` was 5.34.
With `COc1ccc(Cl)cc1-n1nnc(C(=O)N2CCc3ccccc3C2)c1C`, the IC50 is > 50 µM (inactive).
With `Cn1c(-c2nnc(SCC(=O)Nc3ccccc3F)o2)cc2ccccc21`, the pIC50 was 4.67.
On to `CCOc1ccc(S(=O)(=O)Nc2ccc[nH]c2=O)cc1`, for which the IC50 was > 50 µM (inactive).
`COc1ccc(OC)c(NC(=O)Cn2c(=O)n(CC3CCC(C(=O)NCCc4ccccc4)CC3)c(=O)c3ccccc32)c1` (stereo not given): the pIC50 is 6.58.
For `Cn1c(-c2nnc(SCC(=O)NCCc3ccccc3)o2)cc2ccccc21`, the pIC50 is 5.08.
With `Cc1cc(/C=C2/C(=N)N3C(c4ccccc4)=CSC3=NC2=O)c(C)n1-c1ccc(F)cc1`, the IC50 was > 50 µM (inactive).
In the case of `O=C(c1ccco1)N1CCN=C1SCc1ccccc1F`, the IC50 was > 50 µM (inactive).
In the case of `O=C(COc1ccc2ccccc2c1)Nc1cccc2ccccc12`, the pIC50 is 4.80.
For the molecule `CC1=CN2C(=N)/C(=C/c3cn(Cc4ccc(Cl)cc4)c4ccccc34)C(=O)N=C2S1`, the IC50 was > 50 µM (inactive).
As to `COc1ccc(-c2nc(CNC(=O)COc3ccc(C)cc3)cs2)cc1`, the pIC50 was 4.43.
For the molecule `O=C1C=CC(O)C2C1CC13SSC4(CC5C(=O)C=CC(O)C5N4C1=O)C(=O)N23` (stereo not given), the IC50 is > 50 µM (inactive).
As for `O=C(Cc1ccccc1F)Nc1nc(-c2ccco2)c(-c2ccco2)s1`, the IC50 was > 50 µM (inactive).
Still for that read-out and setting: the value for `Cc1ccc(OCCn2c(=N)n(C(C)C)c3ccccc32)cc1` was > 50 µM (inactive); that for `NS(=O)(=O)c1cc(C(=O)OCC(=O)c2ccc3c(c2)OCCO3)ccc1Cl` was > 50 µM (inactive).
For `Cc1ccc(-n2c(-c3ccccc3)cn3c4c(=O)[nH]c(=O)n(C)c4nc23)cc1C`, the pIC50 is 6.54.
On to `O=C(Nc1cc(F)c2nc(N3CCOCC3)ccc2c1)c1ccc(Br)o1`, for which the pIC50 was 4.37.
For the molecule `COc1ccccc1-c1nc2c3c(C)c(C)n(Cc4cccnc4)c3ncn2n1`, the IC50 was > 50 µM (inactive).
Still for that read-out and setting: the value for `CCn1c(=N)n(CCOc2ccc(F)cc2)c2ccccc21` was > 50 µM (inactive); that for `Cc1ccc(Nc2nc(Nc3cccc(F)c3)nc3nccnc23)c(C)c1` was > 50 µM (inactive).
The same measure, in the same setting: the value for `O=c1[nH]c(C2CCN(S(=O)(=O)c3ccc(S(=O)(=O)NC4CCCC4)cc3)CC2)nc2c1nnn2Cc1cccc(Cl)c1` was > 50 µM (inactive); that for `Cc1cc(Cl)ccc1NC(=O)c1cc(-c2cccnc2)n[nH]1` was > 50 µM (inactive).
As to `O=c1c(-c2nc(C3CC3)no2)cccn1Cc1c(F)cccc1Cl`, the IC50 was > 50 µM (inactive).
Consider `O=C(CNC(=O)c1cc2ccccc2[nH]1)Nc1ccc2c(c1)OCCO2`, for which the pIC50 was 4.47.
`Cc1ccc(C(=O)N2CCCC3(C2)Nc2cccnc2NC3=NC2CCCC2)s1` (stereo not given): the IC50 was > 50 µM (inactive).
Still for that read-out and setting: the value for `CN1CC2CN(C(=O)c3ccc(F)cc3)CCN2Cc2ccccc21` (stereo not given) was > 50 µM (inactive); that for `Cc1nn(-c2ccccc2)c(C)c1C(=O)OCC(=O)Nc1cccc(C#N)c1` was > 50 µM (inactive).
`O=c1oc2ccccc2c2nn(-c3ccccn3)cc12`: the pIC50 was 4.32.
On to `O=C(CNS(=O)(=O)c1ccc(F)cc1)N1CCCC(c2nnc3ccccn23)C1` (stereo not given), for which the IC50 was > 50 µM (inactive).
On to `O=C(Nc1cccc(N2CCCC2=O)c1)c1cccc2cccnc12`, for which the pIC50 was 4.66.
On to `Fc1ccc(-c2noc(-c3nnc(NCc4cccnc4)c4ccccc34)n2)cc1`, for which the negative logarithm of the IC50 (pIC50) is 5.59.
For the molecule `O=C(Nc1ccc2c(c1)OCCO2)c1cc(CN2CCCC2)on1`, the IC50 is > 50 µM (inactive).
In the case of `O=C(Nc1cccc(OC(=O)c2ccc(Cl)cc2)c1)c1ccc(Cl)cc1`, the pIC50 is 4.78.
The same measure, in the same setting: the value for `O=C(NCc1ccccc1)c1ccc2c(=O)n(-c3ccccc3)c(=O)[nH]c2c1` was 4.66.
As for `Cc1ccc(-c2ccc(N3CCOCC3)nn2)cc1S(=O)(=O)N1CCOCC1`, the IC50 was > 50 µM (inactive).
Regarding `COc1ccc(OC)c2c(C)cc(N3CCN(S(=O)(=O)c4ccc5c(c4)CCCN5S(C)(=O)=O)CC3)nc12`, the pIC50 is 5.01.
On to `Cc1ccc(S(=O)(=O)c2cnc(SCC(=O)Nc3ccc(Cl)cc3)nc2N)cc1C`, for which the pIC50 is 4.53.
In the case of `CCOC(=O)c1ccc(S(=O)(=O)N2CCC(C(=O)OC(C)C(=O)Nc3cccc([N+](=O)[O-])c3)CC2)cc1` (stereo not given), the negative logarithm of the IC50 (pIC50) is 5.13.
On the same count and under the same terms, the value for `CCN(c1ccc(NC(=O)CSc2nnc(-c3ccccc3)n2-c2ccc(OC)c(OC)c2)cc1)C(C)C` was 5.30.
As for `CC(C)OC(=O)c1cc2c(ccn2C)n1CC(=O)N1CCN(C(=O)c2ccco2)CC1`, the IC50 is > 50 µM (inactive).
Take `Cc1cc(N2CCN(c3ncccn3)CC2)nc2ccc(NC(=O)/C=C/c3ccccc3Cl)cc12`: the pIC50 is 4.90.
Take `Cc1nc(-c2ccccn2)sc1C(=O)Nc1ccc(C#N)cc1`: the IC50 was > 50 µM (inactive).
For the molecule `COc1cccc(NC(=O)C2C3C=CC4(O3)C2C(=O)N(CCc2ccccc2Cl)C4C(=O)NC2CCCCC2)c1` (stereo not given), the pIC50 was 4.55.
`COc1ccc(-n2nnc(C(=O)Nc3ccccc3)c2N)cc1`: the pIC50 was 4.57.
For `CCOC(=O)c1cc2c(ccn2C)n1CC(=O)N1CCc2ccccc2C1`, the IC50 is > 50 µM (inactive).
Turning to `O=C(Cn1c(=O)n(CCC(=O)N2CC=C(c3ccccc3)CC2)c(=O)c2ccccc21)NCc1ccco1`, the pIC50 was 4.51.
Consider `COc1cnc(CSc2ncccn2)cc1OCC(=O)Nc1cc(C)ccc1C`, for which the IC50 is > 50 µM (inactive).
As for `Cc1cccc(-c2noc(CCn3c(=O)[nH]c4ccccc4c3=O)n2)c1`, the pIC50 is 4.46.
With `COc1cc(N)c(Cl)cc1C(=O)OCC(=O)c1ccc2c(c1)OCCO2`, the IC50 is > 50 µM (inactive).
On the same count and under the same terms, the value for `Cc1ccccc1Cn1cc(SCC(=O)Nc2ccc3c(c2)OCCO3)c2ccccc21` was > 50 µM (inactive); that for `CC(=O)c1ccc(N2C(=O)N(Cc3cccc([N+](=O)[O-])c3)c3ccccc3S2(=O)=O)cc1` was > 50 µM (inactive).
With `CCN1C[C@@H]2C[C@]2(c2ccccc2OC)C(=O)c2ncccc21`, the IC50 was > 50 µM (inactive).
The same measure, in the same setting: the value for `Cc1cc(/C=C2/C(=N)N3C(c4ccccc4)=CSC3=NC2=O)c(C)n1-c1ccc2ccccc2c1` was > 50 µM (inactive).

The term IC50 denotes the point on the concentration scale where inhibition reaches its midpoint. In general, pIC50 refers to −log10 of the IC50, conventionally taken in molar units.
